Activity and Emax data for 5 compounds are collected here from ChEMBL document CHEMBL5390310, “Rapid PROTAC Discovery Platform: Nanomole-Scale Array Synthesis and Direct Screening of Reaction Mixtures” (ACS Med Chem Lett, 2023).

Data set [1] concerns the target T1, von Hippel-Lindau disease tumor suppressor/Bromodomain-containing protein 4 (Homo sapiens, UniProt O60885+P40337). Briefly: Protac activity at VHL E3 ligase/BRD4 in HEK293 cells assessed as BRD4 degradation by HiBiT assay relative to control. It is filed as cell-based.
For a further data set, the system named is HEK293. Briefly: Cytotoxicity against HEK293 cells assessed as cell viability by CellTiter-Glo based assay. The format is toxicity. To be noted: human. On the technique in general: Cellular ATP, detected with luciferase, serves as a proxy for viable cell number.
Data set [2] deals with T1, von Hippel-Lindau disease tumor suppressor/Bromodomain-containing protein 4. Briefly: Protac activity at VHL E3 ligase/BRD4 in HEK293 cells assessed as BRD4 degradation by HiBiT assay. The format is cell-based. (In general: HiBiT is a short tag that completes a luciferase, so light tracks the accessible tagged protein.)
For data set [3] the target is unchanged. Briefly: Protac activity at VHL E3 ligase/BRD4 in HEK293 cells assessed as degradation maximum by HiBiT assay relative to control. It is filed as cell-based.

The source made the active and inactive calls. No cut-off for these calls is given here.

T1 sequence (P40337 whole entry, looked up, other chains not shown): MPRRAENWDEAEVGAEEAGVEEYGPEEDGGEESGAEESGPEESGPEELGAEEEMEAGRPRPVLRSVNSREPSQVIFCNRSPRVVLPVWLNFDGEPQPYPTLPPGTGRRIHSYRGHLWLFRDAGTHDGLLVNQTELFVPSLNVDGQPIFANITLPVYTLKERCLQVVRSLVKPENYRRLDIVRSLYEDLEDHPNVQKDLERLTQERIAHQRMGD

For the compound `Cc1ncsc1-c1ccc(CNC(=O)[C@@H]2C[C@@H](O)CN2C(=O)[C@@H](NC(=O)COCCOCCOCCNC(=O)C[C@@H]2N=C(c3ccc(Cl)cc3)c3c(sc(C)c3C)-n3c(C)nnc32)C(C)(C)C)cc1`, the Activity in data set [1] is 25%; in the data set on HEK293 it was “Non-Toxic”. The outcome in data set [2] was Active.
By Emax is commonly meant the maximal effect, on the per cent scale that the assay sets. In the case of `Cc1sc2c(c1C)C(c1ccc(Cl)cc1)=N[C@@H](CC(=O)N1CCN(CC#Cc3ccc4c(c3)CN(C3CCC(=O)NC3=O)C4=O)CC1)c1nnc(C)n1-2` (stereo in doubt), in data set [2], the outcome was Active. Also, in data set [3], the Emax came to 96%.
With `Cc1sc2c(c1C)C(c1ccc(Cl)cc1)=N[C@@H](CC(=O)NCCCCCC(=O)O)c1nnc(C)n1-2`, the Activity result in the data set with HEK293 was “Non-Toxic”.
For the compound `Cc1sc2c(c1C)C(c1ccc(Cl)cc1)=N[C@@H](CC(=O)N1CCN(CCCC3CCN(c4ccc5c(c4)CN(C4CCC(=O)NC4=O)C5=O)CC3)CC1)c1nnc(C)n1-2` (stereo in doubt), the Emax in data set [3] came out at 100%.
Regarding `Cc1sc2c(c1C)C(c1ccc(Cl)cc1)=N[C@@H](CC(=O)O)c1nnc(C)n1-2`, the Activity entry in the data set on HEK293 was “Non-Toxic”.
